Assay results taken from patent EP0513703A2, “Carbamate esters of eseroline having anticholinesterase activity, a process for their preparation and relative pharmaceutical compositions containing them as the active principle” (priority 1991, dated 1992).
Where “and” joins values, the source holds several entries; their conditions need not be identical. Equal values may be shown once.

Tests used:
mice (Swiss strain) [1] = assay: Acute toxicity, LD50 by oral route in mice (class A derivatives); type: in vivo; details: mouse, suspension in 2 % carboxymethylcellulose, observation 7 days
Source text: The letal doses 50 (LD50) by oral route (suspension in 2 % carboxymethylcellulose) are reported herinbelow: TABLE 1

[2] = system: acetylcholinesterase (AchE); type: in vivo, Wistar male rats; details: rat, oral, 1.5 to 4.5 mg/kg
mouse [3] = assay: Spontaneous motility, Dews method modified according to Carminati (class A derivatives); type: in vivo; details: mouse (Swiss), oral, starting from minimum doses of 4-6 mg/kg
Source text: (§1) The Dews method was used, modified according to Carminati (Arch. int. Pharmacodyn. et Thér 181, 68,1969).

mice (Swiss strain) [4] = assay: Acute toxicity, LD50 by oral route in mice (class E derivatives); type: in vivo; details: mouse, suspension in 2 % carboxymethylcellulose, observation 7 days
Source text: The letal doses 50 (LD50) by oral route (suspension in 2 % carboxymethylcellulose) are reported herinbelow: TABLE 9

mouse [5] = assay: Spontaneous motility, Dews method modified according to Carminati (class E derivatives); type: in vivo; details: mouse (Strain Swiss); for decrease of the spontaneous motility (on average): oral, 0.25 mg/kg
Source text: as §1

mouse [6] = assay: Toxicity, LD50 by intraperitoneal route (class C derivatives); type: in vivo
Source text: In the following table reported are the LD50 values determined on mouse for the compounds listed and compared with the corresponding LD50 value for physostigmine, administered by the same (intraperitoneal) route.

[7] = target: T1, acetylicholinesterase enzyme in the mouse brain (Mus musculus, UniProt P21836); assay: Inhibition of acetylcholinesterase in the mouse brain after single doses (class B derivatives); type: in vivo; details: single doses in the range 0.4-7mg/kg
T1 construct: from tissue; host or cells: mouse brain
T1 sequence (P21836 32-614): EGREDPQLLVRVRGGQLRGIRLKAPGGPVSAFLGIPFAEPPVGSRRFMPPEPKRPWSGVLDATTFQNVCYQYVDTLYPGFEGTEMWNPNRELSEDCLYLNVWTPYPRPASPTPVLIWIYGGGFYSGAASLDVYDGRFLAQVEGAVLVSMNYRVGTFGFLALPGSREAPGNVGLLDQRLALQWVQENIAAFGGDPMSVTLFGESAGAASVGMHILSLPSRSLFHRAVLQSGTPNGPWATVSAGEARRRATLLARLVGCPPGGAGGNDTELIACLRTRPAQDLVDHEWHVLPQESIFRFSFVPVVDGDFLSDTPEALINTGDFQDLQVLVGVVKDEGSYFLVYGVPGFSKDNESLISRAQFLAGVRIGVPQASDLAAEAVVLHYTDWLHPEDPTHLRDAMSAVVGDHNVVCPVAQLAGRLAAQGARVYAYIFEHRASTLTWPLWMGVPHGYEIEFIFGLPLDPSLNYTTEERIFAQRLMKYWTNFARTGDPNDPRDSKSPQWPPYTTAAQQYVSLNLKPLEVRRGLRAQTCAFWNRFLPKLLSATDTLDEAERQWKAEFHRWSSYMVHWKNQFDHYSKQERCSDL

mice = assay: Toxicity, LD50 by intraperitoneal route (class B derivatives); type: in vivo; details: death within 24 hours of 50% of the tested animals
Source text: In the following table reported are LD50 values determined on mice for the listed compounds and compared with that of physostigmine administered by the same (intraperitoneal) route.

[8] = system: anticholinesterase activity, on the mouse brain; assay: Inhibition of cholinesterase activity on the mouse brain after single doses (class C derivatives); type: in vivo; details: for suppression of the enzymatic activity: even at higher doses; for duration of the inhibitory activity compared with physostigmine: mouse brain; for inhibition of the anticholinesterase activity, on the mouse brain (in words): single doses in the range 0.4-7mg/kg
motor activity = assay: Antagonist effect on the stimulating effect of scopolamine (class C derivatives); type: in vivo; details: scopolamine 1 mg/kg; oral administration
Protocol: This is countered by the oral administration of 2.5 mg of ES001, ES002, ES003.

CC(C)C[C@H](NC(=O)Oc1ccc2c(c1)[C@]1(C)CCN(C)[C@@H]1N2C)C(=O)O [MGS103, (3-aS-cis) 1,2,3,3a,8,8a-hexahydro 1,3a,8-trimethyl pyrrol [2,3-b]-indol-5-ol-L-2(4-methylvaleric acid) carbamate ester]
LD50 per os (mice (Swiss strain) [1]): 412.6 ± 46.34 mg/kg
inhibitory cerebral and serumal acetylcholinesterase activity (in words) [2]: clear inhibitory dose-dependent and reversible
decrease of the spontaneous motility (on average) (mouse [3]): ~-30%

CC(C)[C@H](NC(=O)Oc1ccc2c(c1)[C@]1(C)CCN(C)[C@@H]1N2C)C(=O)O [MGS104, (3-as-cis) 1,2,3,3a,8,8a-hexahydro 1,3a,8-trimethyl pyrrol [2,3-b]-indol-5-ol-L-(3-methylbutyric acid) carbamate ester]
LD50 per os (mice (Swiss strain) [1]): 423.0 ± 35.21 mg/kg
inhibitory cerebral and serumal acetylcholinesterase activity (in words) [2]: clear inhibitory dose-dependent and reversible
decrease of the spontaneous motility (on average) (mouse [3]): ~-30%

CN1CC[C@@]2(C)c3cc(OC(=O)NCCCCCNC(=O)Oc4ccc5c(c4)[C@]4(C)CCN(C)[C@@H]4N5C)ccc3N(C)[C@@H]12 [MS007, (3a S-cis) - 1,2,3,3a,8,8a hexahydro - 1,3a,8 - trimethyl pyrrol [2,3-b]-indol-5-ol-1,5-pentandicarbamate ester]
LD50 per os (mice (Swiss strain) [4]): 64.26 ± 10.29 mg/kg
oral dose causing a significant decrease of the spontaneous motility (mouse [5]): 0.25 mg/kg
decrease of the spontaneous motility (on average) (mouse [5]): ~-25%

CN1CC[C@@]2(C)c3cc(OC(=O)NCC(=O)O)ccc3N(C)[C@@H]12 [MGS105, (3-as-cis) 1,2,3,3a,8,8a-hexahydro 1,3a,8-trimethyl pyrrol [2,3-b]-indol-5-ol (acetic acid) carbamate ester]
LD50 per os (mice (Swiss strain) [1]): 345.6 ± 24.86 mg/kg
inhibitory cerebral and serumal acetylcholinesterase activity (in words) [2]: clear inhibitory dose-dependent and reversible
decrease of the spontaneous motility (on average) (mouse [3]): ~-30%

CN1CC[C@@]2(C)c3cc(OC(=O)NCCCCCCNC(=O)Oc4ccc5c(c4)[C@]4(C)CCN(C)[C@@H]4N5C)ccc3N(C)[C@@H]12 [MS010, (3a S-cis) - 1,2,3,3a,8,8a hexahydro - 1,3a,8 - trimethyl pyrrol [2,3-b]-indol-5-ol-1,6-hexandicarbamate ester]
LD50 per os (mice (Swiss strain) [4]): 50.65 ± 5.48 mg/kg
oral dose causing a significant decrease of the spontaneous motility (mouse [5]): 0.25 mg/kg
decrease of the spontaneous motility (on average) (mouse [5]): ~-25%

CN1CC[C@@]2(C)c3cc(OC(=O)NCC(O)CC4CCCCC4)ccc3N(C)[C@@H]12 (stereo partly drawn) [ES008, trimethyl-1,3a,8, hexahydro-1,2,3a,8,-8a pyrrol(2,3-b)indol-5-(3aS,8aR)-3-cyclohexyl-2-hydroxypropylcarbamate]
LD50 (mg/kg i.p) (mouse [6]): >20 mg/kg i.p and <30 mg/kg i.p

CN1CC[C@@]2(C)c3cc(OC(=O)Nc4ccccc4O)ccc3N(C)[C@@H]12 [ES005, trimethyl-1,3a,8 hexahydro-1,2,3a,8,8a-pyrrol(2,3-b)indol-5(3aS,8aR)-2-hydroxy-phenyl-carbamate]
LD50 (mg/kg i.p) (mouse [6]): >15 mg/kg i.p and <30 mg/kg i.p

CN1CC[C@@]2(C)c3cc(OC(=O)NCCCCCCCNC(=O)Oc4ccc5c(c4)[C@]4(C)CCN(C)[C@@H]4N5C)ccc3N(C)[C@@H]12 [MS011, (3a S-cis) - 1,2,3,3a,8,8a hexahydro - 1,3a,8 - trimethyl pyrrol [2,3-b]-indol-5-ol-1,7-heptandicarbamate ester]
LD50 per os (mice (Swiss strain) [4]): 63.31 ± 9.32 mg/kg
oral dose causing a significant decrease of the spontaneous motility (mouse [5]): 0.25 mg/kg
decrease of the spontaneous motility (on average) (mouse [5]): ~-25%

CN1CC[C@@]2(C)c3cc(OC(=O)NCCCCCCCCC(=O)O)ccc3N(C)[C@@H]12 [Compound M003]
inhibition of acetylicholinesterase enzyme in the mouse brain (in words) [7]: dose -dependence, reversible inhibition
LD50 (mg/kg i.p.) (mice): >30 mg/kg i.p. and <60 mg/kg i.p.

CC(O)CNC(=O)Oc1ccc2c(c1)[C@]1(C)CCN(C)[C@@H]1N2C (stereo partly drawn) [ES001, trimethyl-1,3a,8 hexahydro-1,2,3a,8,8a-pyrrol(2,3-b)indol-5(3aS,8aR)2-hydroxypropylcarbamate]
suppression of the enzymatic activity [8]: do not completely suppress the enzymatic activity
duration of the inhibitory activity compared with physostigmine [8]: lasts longer than that of physostigmine
inhibition of the anticholinesterase activity, on the mouse brain (in words) [8]: dose-dependence, reversible inhibition
oral dose countering the stimulating effect of scopolamine (motor activity): 2.5 mg
LD50 (mg/kg i.p) (mouse [6]): >20 mg/kg i.p and <40 mg/kg i.p

CN1CC[C@@]2(C)c3cc(OC(=O)NCC(O)CC(=O)O)ccc3N(C)[C@@H]12 (some centres unmarked) [Compound M007]
inhibition of acetylicholinesterase enzyme in the mouse brain (in words) [7]: dose -dependence, reversible inhibition
LD50 (mg/kg i.p.) (mice): >30 mg/kg i.p. and <60 mg/kg i.p.

CN1CC[C@@]2(C)c3cc(OC(=O)NCCC(O)CC(=O)O)ccc3N(C)[C@@H]12 (some centres unmarked) [Compound M009]
inhibition of acetylicholinesterase enzyme in the mouse brain (in words) [7]: dose -dependence, reversible inhibition
LD50 (mg/kg i.p.) (mice): >20 mg/kg i.p. and <40 mg/kg i.p.

CN1CC[C@@]2(C)c3cc(OC(=O)NCC(C)(O)c4ccccc4)ccc3N(C)[C@@H]12 (stereo partly drawn) [ES004, trimethyl-1,3a,8, hexahydro-1,2,3a, 8,8a-pyrrol (2,3-b) indol-5 (3aS,8aR)-2-hydroxy-2-phenylpropylcarbamate]
LD50 (mg/kg i.p) (mouse [6]): >10 mg/kg i.p and <15 mg/kg i.p

CN1CC[C@@]2(C)c3cc(OC(=O)NCCCCCCCCNC(=O)Oc4ccc5c(c4)[C@]4(C)CCN(C)[C@@H]4N5C)ccc3N(C)[C@@H]12 [MS002, Salicylate of (3a S-cis) - 1,2,3a,8,8a hexahydro - 1,3a,- trimethyl pyrrol [2,3-b]-indol-5-ol-1,8-octandicarbamate ester]
LD50 per os (mice (Swiss strain) [4]): 48.98 ± 6.31 mg/kg
oral dose causing a significant decrease of the spontaneous motility (mouse [5]): 0.25 mg/kg
decrease of the spontaneous motility (on average) (mouse [5]): ~-25%

trimethyl -1,3a,8-hexahydro-1,2,3a,8,8a-pyrrol(2,3-b)indol-5-(3aS,8aR)12-hydroxystearylpropylcarbamate [ES003]
suppression of the enzymatic activity [8]: do not completely suppress the enzymatic activity
duration of the inhibitory activity compared with physostigmine [8]: lasts longer than that of physostigmine
inhibition of the anticholinesterase activity, on the mouse brain (in words) [8]: dose-dependence, reversible inhibition
oral dose countering the stimulating effect of scopolamine (motor activity): 2.5 mg
LD50 (mg/kg i.p) (mouse [6]): >40 mg/kg i.p and <80 mg/kg i.p

CN1CC[C@@]2(C)c3cc(OC(=O)NC(CO)C(=O)O)ccc3N(C)[C@@H]12 (some centres unmarked) [Compound M006]
inhibition of acetylicholinesterase enzyme in the mouse brain (in words) [7]: dose -dependence, reversible inhibition

CCCCCCCC/C=C\CCCCCCCC(=O)OC(C)CNC(=O)Oc1ccc2c(c1)[C@]1(C)CCN(C)[C@@H]1N2C (stereo partly drawn) [ES002, trimethyl-1,3a,8 hexahydro-1,2,3a,8,8a-pyrrol(2,3-b)indol-5(3aS,8aR)-2-oleoxypropylcarbamate]
suppression of the enzymatic activity [8]: do not completely suppress the enzymatic activity
duration of the inhibitory activity compared with physostigmine [8]: lasts longer than that of physostigmine
inhibition of the anticholinesterase activity, on the mouse brain (in words) [8]: dose-dependence, reversible inhibition
oral dose countering the stimulating effect of scopolamine (motor activity): 2.5 mg
LD50 (mg/kg i.p) (mouse [6]): >40 mg/kg i.p and <80 mg/kg i.p

CC(CNC(=O)Oc1ccc2c(c1)[C@]1(C)CCN(C)[C@@H]1N2C)C(=O)O (some centres unmarked) [Compound M002]
inhibition of acetylicholinesterase enzyme in the mouse brain (in words) [7]: dose -dependence, reversible inhibition
LD50 (mg/kg i.p.) (mice): >40 mg/kg i.p. and <80 mg/kg i.p.

CCCCCCCCCCCCCCCCCC(=O)OC(CCCCCC)CNC(=O)Oc1ccc2c(c1)[C@]1(C)CCN(C)[C@@H]1N2C (stereo partly drawn) [ES007, trimethyl-1,3a,8 hexahydro-1,2,3a,8,8a-pyrrol(2,3-b)indol-5-(3aS,8aR)-2-stearoyloxyoctanylcarbamate]
LD50 (mg/kg i.p) (mouse [6]): >40 mg/kg i.p and <80 mg/kg i.p

CN1CC[C@@]2(C)c3cc(OC(=O)NCCC(=O)O)ccc3N(C)[C@@H]12 [Compound M001]
inhibition of acetylicholinesterase enzyme in the mouse brain (in words) [7]: dose -dependence, reversible inhibition
LD50 (mg/kg i.p.) (mice): >20 mg/kg i.p. and <40 mg/kg i.p.

CC(CC(=O)O)NC(=O)Oc1ccc2c(c1)[C@]1(C)CCN(C)[C@@H]1N2C (some centres unmarked) [Compound M008]
inhibition of acetylicholinesterase enzyme in the mouse brain (in words) [7]: dose -dependence, reversible inhibition
LD50 (mg/kg i.p.) (mice): >20 mg/kg i.p. and <40 mg/kg i.p.
